Reference: ChEMBL document CHEMBL5316325, “Design and Synthesis of 3-Hydroxy-pyridin-4(1H)-ones-Ciprofloxacin Conjugates as Dual Antibacterial and Antibiofilm Agents against Pseudomonas aeruginosa” (J Med Chem, 2023)
≈ marks a conversion by molar mass, not a printed value. Calls of active or inactive are those of the source. No cut-off for these calls is given here.

Columns and labels:
Pseudomonas aeruginosa [1] = test: Antibiofilm activity against Pseudomonas aeruginosa PAO1 in ABTGC medium assessed as biofilm biomass at 1/4 times MIC incubated for 24 hrs by crystal violet staining based assay relative to control; assay type: functional
Pseudomonas aeruginosa [2] = test: Antibacterial activity against Pseudomonas aeruginosa ATCC 27853 in MHB medium assessed as bacterial growth inhibition by CLSI based broth microdilution method; assay type: functional
Pseudomonas aeruginosa [3] = test: Antibacterial activity against Pseudomonas aeruginosa PAO1 in MHB medium assessed as bacterial growth inhibition by CLSI based broth microdilution method; assay type: functional
Pseudomonas aeruginosa [4] = test: Antibacterial activity against Pseudomonas aeruginosa FB in MHB medium assessed as bacterial growth inhibition by CLSI based broth microdilution method; assay type: functional
Pseudomonas aeruginosa [5] = test: Antibacterial activity against Pseudomonas aeruginosa 1167 in MHB medium assessed as bacterial growth inhibition by CLSI based broth microdilution method; assay type: functional
Pseudomonas aeruginosa [6] = test: Antibacterial activity against Pseudomonas aeruginosa 1121 in MHB medium assessed as bacterial growth inhibition by CLSI based broth microdilution method; assay type: functional
Pseudomonas aeruginosa [7] = test: Antibacterial activity against Pseudomonas aeruginosa 1129 in MHB medium assessed as bacterial growth inhibition by CLSI based broth microdilution method; assay type: functional
Escherichia coli = test: Antibacterial activity against Escherichia coli ATCC 25922 in MHB medium assessed as bacterial growth inhibition by CLSI based broth microdilution method; assay type: functional
Klebsiella pneumoniae = test: Antibacterial activity against Klebsiella pneumoniae ATCC 700603 in MHB medium assessed as bacterial growth inhibition by CLSI based broth microdilution method; assay type: functional
Staphylococcus aureus [8] = test: Antibacterial activity against Staphylococcus aureus ATCC 25923 in MHB medium assessed as bacterial growth inhibition by CLSI based broth microdilution method; assay type: functional
Staphylococcus aureus [9] = test: Antibacterial activity against methicillin-resistant Staphylococcus aureus ATCC 515992 in MHB medium assessed as bacterial growth inhibition by CLSI based broth microdilution method; assay type: functional
Pseudomonas aeruginosa [10] = test: Antibacterial activity against Pseudomonas aeruginosa assessed as inhibition of virulence release at 4 ug/ml; assay type: functional, organism-based; settings: dose 4.0 µg/ml
Pseudomonas aeruginosa [11] = test: Antibacterial activity against Pseudomonas aeruginosa PAO1 in ABTGC medium assessed as bacterial growth inhibition; assay type: functional
Pseudomonas aeruginosa [12] = test: Antibiofilm activity against Pseudomonas aeruginosa PAO1 in ABTGC medium assessed as biofilm biomass at 1/2 times MIC incubated for 24 hrs by crystal violet staining based assay relative to control; assay type: functional
Pseudomonas aeruginosa [13] = test: Antibiofilm activity against Pseudomonas aeruginosa PAO1 in ABTGC medium assessed as biofilm biomass at MIC incubated for 24 hrs by crystal violet staining based assay relative to control; assay type: functional
Pseudomonas aeruginosa [14] = test: Antibacterial activity against Pseudomonas aeruginosa PAO1 assessed as log reduction in CFU/ml at 8 times MIC measured after 2 hrs by time killing analysis; assay type: functional
Pseudomonas aeruginosa [15] = test: Antibacterial activity against Pseudomonas aeruginosa PAO1 assessed as reduction in bacterial CFU count at 8 times MIC measured after 4 hrs by time killing analysis; assay type: functional, organism-based
Pseudomonas aeruginosa [16] = test: Antibacterial activity against Pseudomonas aeruginosa PAO1 assessed as reduction in bacterial viability at MIC measured after 8 hrs by time killing analysis; assay type: functional, organism-based
Pseudomonas aeruginosa [17] = test: Antibacterial activity against Pseudomonas aeruginosa PAO1 assessed as reduction in bacterial viability at 8 times MIC measured after 4 hrs by time killing analysis; assay type: functional, organism-based
Pseudomonas aeruginosa [18] = test: Antibiofilm activity against Pseudomonas aeruginosa PAO1 assessed as biofilm eradication at 4 times MIC incubated for 24 hrs by crystal violet staining based assay relative to control; assay type: functional
Pseudomonas aeruginosa [19] = test: Antibiofilm activity against Pseudomonas aeruginosa PAO1 assessed as biofilm eradication at high concentration incubated for 36 hrs by crystal violet staining based assay; assay type: functional, organism-based
Pseudomonas aeruginosa [20] = test: Antibiofilm activity against Pseudomonas aeruginosa PAO1 in ABTGC medium assessed as biofilm biomass at MIC incubated for 24 hrs in presence of 10 uM Fe by crystal violet staining based assay relative to control; assay type: functional
Pseudomonas aeruginosa [21] = test: Antibiofilm activity against Pseudomonas aeruginosa PAO1 in ABTGC medium assessed as biofilm biomass at 1/2 times MIC incubated for 24 hrs in presence of 10 uM Fe by crystal violet staining based assay relative to control; assay type: functional
Pseudomonas aeruginosa [22] = test: Antibiofilm activity against Pseudomonas aeruginosa PAO1 in ABTGC medium assessed as biofilm biomass at 1/4 times MIC incubated for 24 hrs in presence of 10 uM Fe by crystal violet staining based assay relative to control; assay type: functional
Pseudomonas aeruginosa [23] = test: Antibiofilm activity against Pseudomonas aeruginosa PAO1 in ABTGC medium assessed as biofilm biomass at MIC incubated for 24 hrs in presence of 40 uM Fe by crystal violet staining based assay relative to control; assay type: functional
Pseudomonas aeruginosa [24] = test: Antibiofilm activity against Pseudomonas aeruginosa PAO1 in ABTGC medium assessed as biofilm biomass at 1/2 times MIC incubated for 24 hrs in presence of 40 uM Fe by crystal violet staining based assay relative to control; assay type: functional
Pseudomonas aeruginosa [25] = test: Antibiofilm activity against Pseudomonas aeruginosa PAO1 in ABTGC medium assessed as biofilm biomass at 1/4 times MIC incubated for 24 hrs in presence of 40 uM Fe by crystal violet staining based assay relative to control; assay type: functional
Pseudomonas aeruginosa [26] = test: Antibiofilm activity against Pseudomonas aeruginosa PAO1 assessed as decrease in rhamnolipid level by absorbance based assay; assay type: functional, organism-based; settings: dose 1.72-6.88 µM
Pseudomonas aeruginosa [27] = test: Antibiofilm activity against Pseudomonas aeruginosa PAO1 assessed as decrease in pyocyanin level by absorbance based assay; assay type: functional, organism-based; settings: dose 1.72-6.88 µM
Pseudomonas aeruginosa [28] = test: Antibiofilm activity against Pseudomonas aeruginosa PAO1 assessed as decrease in rhamnolipid level at 3.44 uM by absorbance based assay relative to control; assay type: functional; design: scale not given: the % may be the effect or the level left
Pseudomonas aeruginosa [29] = test: Antibiofilm activity against Pseudomonas aeruginosa PAO1 assessed as decrease in pyocyanin level at 3.44 uM by absorbance based assay relative to control; assay type: functional; design: scale not given: the % may be the effect or the level left
Pseudomonas aeruginosa [30] = test: Antibiofilm activity against Pseudomonas aeruginosa PAO1 assessed as reduction in swimming motility at 3.44 uM incubated for 16 hrs relative to control; assay type: functional; design: scale not given: the % may be the effect or the level left
Pseudomonas aeruginosa [31] = test: Antibiofilm activity against Pseudomonas aeruginosa PAO1 assessed as reduction in swarming motility at 3.44 uM incubated for 16 hrs relative to control; assay type: functional; design: scale not given: the % may be the effect or the level left
Pseudomonas aeruginosa [32] = test: Antibiofilm activity against Pseudomonas aeruginosa PAO1 assessed as reduction in twitching motility at 3.44 uM incubated for 16 hrs relative to control; assay type: functional; design: scale not given: the % may be the effect or the level left
HEK293 [33] = test: Cytotoxicity against HEK293 cells upto 100 uM incubated for 48 hrs by MTT assay; assay type: toxicity, cell-based; settings: human, hek293, 48 h
A549 = test: Cytotoxicity against human A549 cells upto 100 uM incubated for 16 hrs by MTT assay; assay type: toxicity, cell-based; settings: a549, 16 h
[34] = Toxicity in Caenorhabditis elegans assessed as survival rate at 50 to 100 uM measured after 48 hrs by bright field microscopy; settings: dose 50-100 µM
Pseudomonas aeruginosa [35] = test: Antibacterial activity against Pseudomonas aeruginosa PAO1 assessed as decrease in bacterial load at MIC measured for 12 hrs by absorbance based assay; assay type: functional, organism-based
[36] = Toxicity in Caenorhabditis elegans infected with Pseudomonas aeruginosa PAO1 assessed as survival at MIC measured after 48 hrs by bright field microscopy relative to control; settings: read-out: Activity
HEK293 [37] = test: Cytotoxicity against HEK293 cells at 50 to 100 uM incubated for 48 hrs by MTT assay relative to control; assay type: toxicity, cell-based; settings: human, hek293, 48 h, dose 50-100 µM
Pseudomonas aeruginosa [38] = test: Antibiofilm activity against Pseudomonas aeruginosa PAO1 assessed as decrease in rhamnolipid level at 15 uM by absorbance based assay; assay type: functional, organism-based
Pseudomonas aeruginosa [39] = test: Antibiofilm activity against Pseudomonas aeruginosa PAO1 assessed as decrease in pyocyanin level at 15 uM by absorbance based assay; assay type: functional, organism-based
Pseudomonas aeruginosa [40] = test: Antibiofilm activity against Pseudomonas aeruginosa PAO1 assessed as inhibition of bacterial motility at 15 uM incubated for 16 hrs relative to control; assay type: functional, organism-based

Compound | Activity (Pseudomonas aeruginosa [1]) [%] | MIC (Pseudomonas aeruginosa [2]) [µM] | MIC (Pseudomonas aeruginosa [3]) [µM] | MIC (Pseudomonas aeruginosa [4]) [µM] | MIC (Pseudomonas aeruginosa [5]) [µM] | MIC (Pseudomonas aeruginosa [6]) [µM] | MIC (Pseudomonas aeruginosa [7]) [µM] | MIC (Escherichia coli) [µM] | MIC (Klebsiella pneumoniae) [µM] | MIC (Staphylococcus aureus [8]) [µM] | MIC (Staphylococcus aureus [9]) [µM] | MIC (Pseudomonas aeruginosa [11]) [µM] | Activity (Pseudomonas aeruginosa [12]) [%] | Activity (Pseudomonas aeruginosa [13]) [%] | Activity (Pseudomonas aeruginosa [18]) [%] | Activity (Pseudomonas aeruginosa [19]) | Activity (Pseudomonas aeruginosa [20]) [%] | Activity [34] | also measured
Cc1cc(=O)c(O)c(CNC(=O)CCC(N)(CCC(=O)NCc2c(O)c(=O)cc(C)n2C)CCC(=O)NCc2c(O)c(=O)cc(C)n2C)n1C | 99.8 | > 200 | > 200 | > 200 | > 200 | > 200 | > 200 | > 200 | > 200 | > 200 | > 200 | > 200 | 346.5 | 315.1 |  |  |  |  | inhibition (Pseudomonas aeruginosa [10]): inactive
Cc1cc(=O)c(O)c(CNC(=O)CCC(=O)N2CCN(c3cc4c(cc3F)c(=O)c(C(=O)O)cn4C3CC3)CC2)n1C | 21.7 | 0.86 (≈ 0.5 µg/mL) | 0.43 (≈ 0.25 µg/mL) | 1.72 (≈ 1 µg/mL) | 0.86 (≈ 0.5 µg/mL) | 1.72 (≈ 1 µg/mL) | 3.44 (≈ 2 µg/mL) | 0.03 (≈ 0.0174 µg/mL) | 1.72 (≈ 1 µg/mL) | 3.44 (≈ 2 µg/mL) | > 200 | 6.88 (≈ 4 µg/mL) | 111.5 | 39 | 74.2 | Active | 39 | Non-Toxic | FC (Pseudomonas aeruginosa [14]): 2; Activity (Pseudomonas aeruginosa [15]): Active; Activity (Pseudomonas aeruginosa [16]): Active; Activity (Pseudomonas aeruginosa [17]): Active; Activity (Pseudomonas aeruginosa [21]): 111.5%; Activity (Pseudomonas aeruginosa [22]): 21.7%; Activity (Pseudomonas aeruginosa [23]): 211%; Activity (Pseudomonas aeruginosa [24]): 223.4%; Activity (Pseudomonas aeruginosa [25]): 205.2%; Activity (Pseudomonas aeruginosa [26]): Dose-Dependent Effect; Activity (Pseudomonas aeruginosa [27]): Dose-Dependent Effect; Activity (Pseudomonas aeruginosa [28]): 20%; Activity (Pseudomonas aeruginosa [29]): 40%; Activity (Pseudomonas aeruginosa [30]): 63%; Activity (Pseudomonas aeruginosa [31]): 30%; Activity (Pseudomonas aeruginosa [32]): 63%; Activity (HEK293 [33]): Non-Toxic; Activity (A549): Non-Toxic; Activity (Pseudomonas aeruginosa [35]): Active; survival at 48 h [36]: 50%
O=C(O)c1cn(C2CC2)c2cc(N3CCNCC3)c(F)cc2c1=O [CIPROFLOXACIN] |  |  |  |  |  |  |  |  |  |  |  |  |  | 109.5 | 23.6 | inactive | 109.5 | Non-Toxic | Activity (HEK293 [37]): 40%
O=C(CCC(=O)N1CCN(c2cc3c(cc2F)c(=O)c(C(=O)O)cn3C2CC2)CC1)NCc1ccccc1 | 102.4 | > 200 | > 200 | > 200 | > 200 | > 200 | > 200 | 15.4 (≈ 8 µg/mL) | > 200 | 30.7 (≈ 16 µg/mL) | > 200 | > 200 | 97.3 | 218.8 |  |  |  |  | Activity (Pseudomonas aeruginosa [38]): inactive; Activity (Pseudomonas aeruginosa [39]): inactive; inhibition (Pseudomonas aeruginosa [40]): inactive
O=C(CCC(=O)N1CCN(c2cc3c(cc2F)c(=O)c(C(=O)O)cn3C2CC2)CC1)NCc1cc(=O)c(O)c[nH]1 | 19.9 | 7.23 (≈ 4 µg/mL) | 1.81 (≈ 1 µg/mL) | 7.23 (≈ 4 µg/mL) | 3.61 (≈ 2 µg/mL) | 3.61 (≈ 2 µg/mL) | 7.23 (≈ 4 µg/mL) | 0.23 (≈ 0.127 µg/mL) | 14.4 (≈ 8 µg/mL) | 3.61 (≈ 2 µg/mL) | > 200 | 14.4 (≈ 8 µg/mL) | 98.8 | 169.8 |  |  |  |  | 
